This note sets out measurements from patent US9169254B2, “Spiroimidazolone derivative” (Chugai Seiyaku Kabushiki Kaisha, priority 2009, dated 2015).

For this test, the target named is T1, human PTH1 receptor (Homo sapiens, UniProt Q03431).
T1 sequence (Q03431 27-593): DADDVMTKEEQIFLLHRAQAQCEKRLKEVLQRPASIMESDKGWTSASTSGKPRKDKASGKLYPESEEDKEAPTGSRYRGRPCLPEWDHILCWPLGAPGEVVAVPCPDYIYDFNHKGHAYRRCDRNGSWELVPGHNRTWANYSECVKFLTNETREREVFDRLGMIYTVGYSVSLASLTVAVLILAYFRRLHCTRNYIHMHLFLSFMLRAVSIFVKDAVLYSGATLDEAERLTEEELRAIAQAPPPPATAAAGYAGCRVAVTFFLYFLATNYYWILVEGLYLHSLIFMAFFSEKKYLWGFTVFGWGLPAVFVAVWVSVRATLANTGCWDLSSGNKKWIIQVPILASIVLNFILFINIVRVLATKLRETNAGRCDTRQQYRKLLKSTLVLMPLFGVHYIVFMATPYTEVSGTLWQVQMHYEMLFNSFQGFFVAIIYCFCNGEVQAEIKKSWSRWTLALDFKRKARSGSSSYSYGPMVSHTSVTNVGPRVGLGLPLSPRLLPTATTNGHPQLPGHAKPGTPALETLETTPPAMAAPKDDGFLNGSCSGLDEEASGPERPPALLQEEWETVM
The test is described as follows: In vitro cAMP signal activity in HKRK-B7 cells (LLC-PK1 cells overexpressing the human PTH1 receptor). It counts as cell-based. Conditions: HKRK-B7 cells; compound at 1×10^−3 M; cAMP produced as percentage of that produced by hPTH(1-34) at 100 nM.
For `Cc1cc(OCCCN(C)C)ccc1CCS(=O)(=O)N1CCC2(CC1)N=C(c1cccc(OC(F)(F)F)c1)NC2=O` [Compound 295, 8-{2-[4-(3-dimethylamino-propoxy)-2-methyl-phenyl]-ethanesulfonyl}-2-(3-trifluoromethoxy-phenyl)-1,3,8-triaza-spiro[4.5]dec-1-en-4-one], the “cAMP production activity (%)” value is reported as 95%.

For the compound `Cc1cc(N2C[C@H](CO)OC2=O)ccc1CCS(=O)(=O)N1CCC2(CC1)N=C(c1cccc(C(F)(F)F)c1)NC2=O` [Compound 296, 8-{2-[4-((R)-5-hydroxymethyl-2-oxo-oxazolidin-3-yl)-2-methyl-phenyl]-ethanesulfonyl}-2-(3-trifluoromethyl-phenyl)-1,3,8-triaza-spiro[4.5]dec-1-en-4-one], the “cAMP production activity (%)” value was determined as 65%.

For the compound `Cc1cc(N2C[C@H](O)CC2=O)ccc1CCS(=O)(=O)N1CCC2(CC1)N=C(c1cccc(C(F)(F)F)c1)NC2=O` [Compound 297, 8-{2-[4-((R)-4-hydroxy-2-oxo-pyrrolidin-1-yl)-2-methyl-phenyl]-ethanesulfonyl}-2-(3-trifluoromethyl-phenyl)-1,3,8-triaza-spiro[4.5]dec-1-en-4-one], the “cAMP production activity (%)” value is on record as 91%.

Take `CC(=O)Nc1ccc(CCS(=O)(=O)N2CCC3(CC2)N=C(c2cccc(C(F)(F)F)c2)NC3=O)c(C)c1` [Compound 298, N-(3-methyl-4-{2-[4-oxo-2-(3-trifluoromethyl-phenyl)-1,3,8-triaza-spiro[4.5]dec-1-ene-8-sulfonyl]-ethyl}-phenyl)-acetamide]: the “cAMP production activity (%)” value turned out to be 63%.

For the compound `CC(=O)N(C)c1ccc(CCS(=O)(=O)N2CCC3(CC2)N=C(c2cccc(OC(F)(F)F)c2)NC3=O)c(C)c1` [Compound 299, N-methyl-N-(3-methyl-4-{2-[4-oxo-2-(3-trifluoromethoxy-phenyl)-1,3,8-triaza-spiro[4.5]dec-1-ene-8-sulfonyl]-ethyl}-phenyl)-acetamide], the “cAMP production activity (%)” value stood at 83%.

In the case of `Cc1cc(N(C)C(=O)CO)ccc1CCS(=O)(=O)N1CCC2(CC1)N=C(c1cccc(OC(F)(F)F)c1)NC2=O` [Compound 300, 2-hydroxy-N-methyl-N-(3-methyl-4-{2-[4-oxo-2-(3-trifluoromethoxy-phenyl)-1,3,8-triaza-spiro[4.5]dec-1-ene-8-sulfonyl]-ethyl}-phenyl)-acetamide], the “cAMP production activity (%)” value is on record as 73%.

`Cc1cc(N(C)C(N)=O)ccc1CCS(=O)(=O)N1CCC2(CC1)N=C(c1cccc(OC(F)(F)F)c1)NC2=O` [Compound 301, 1-methyl-1-(3-methyl-4-{2-[4-oxo-2-(3-trifluoromethoxy-phenyl)-1,3,8-triaza-spiro[4.5]dec-1-ene-8-sulfonyl]-ethyl}-phenyl)-urea]: the “cAMP production activity (%)” value came out at 72%.

As for `CC(=O)Nc1cc(C)c(CCS(=O)(=O)N2CCC3(CC2)N=C(C2CCCCC2)NC3=O)c(C)c1` [Compound 302, N-{4-[2-(2-cyclohexyl-4-oxo-1,3,8-triaza-spiro[4.5]dec-1-ene-8-sulfonyl)-ethyl]-3,5-dimethyl-phenyl}-acetamide], the “cAMP production activity (%)” value stood at 95%.

In the case of `O=C1NC(C2CCCCC2)=NC12CCN(S(=O)(=O)CCc1cccc3[nH]ccc13)CC2` [Compound 303, 2-Cyclohexyl-8-[2-(1H-indol-4-yl)-ethanesulfonyl]-1,3,8-triaza-spiro[4.5]dec-1-en-4-one], the “cAMP production activity (%)” value is reported as 76%.

On to `O=C1NC(c2cccc(OC(F)(F)F)c2)=NC12CCN(S(=O)(=O)CCc1ccccc1C(F)(F)F)CC2` [Compound 304, 2-(3-trifluoromethoxy-phenyl)-8-[2-(2-trifluoromethyl-phenyl)-ethanesulfonyl]-1,3,8-triaza-spiro[4.5]dec-1-en-4-one], for which the “cAMP production activity (%)” value is recorded as 47%.

On to `O=C1NC(c2cccc(OC(F)(F)F)c2)=NC12CCN(S(=O)(=O)CCc1cccc3[nH]ccc13)CC2` [Compound 305, 8-[2-(1H-indol-4-yl)-ethanesulfonyl]-2-(3-trifluoromethoxy-phenyl)-1,3,8-triaza-spiro[4.5]dec-1-en-4-one], for which the “cAMP production activity (%)” value is on record as 73%.

For the compound `CC1CCC(C2=NC3(CCN(S(=O)(=O)CCc4cccc5[nH]ccc45)CC3)C(=O)N2)CC1` (stereo not drawn) [Compound 306, 8-[2-(1H-indol-4-yl)-ethanesulfonyl]-2-(4-methyl-cyclohexyl)-1,3,8-triaza-spiro[4.5]dec-1-en-4-one], the “cAMP production activity (%)” value came out at 45%.

`O=C1NC(c2cccc(OC(F)(F)F)c2)=NC12CCN(S(=O)(=O)CCc1cccc3c1OC(F)(F)O3)CC2` [Compound 307, 8-[2-(2,2-difluoro-benzo[1,3]dioxol-4-yl)-ethanesulfonyl]-2-(3-trifluoromethoxy-phenyl)-1,3,8-triaza-spiro[4.5]dec-1-en-4-one]: the “cAMP production activity (%)” value is 58%.

With `Cn1ccc2cccc(CCS(=O)(=O)N3CCC4(CC3)N=C(c3cccc(OC(F)(F)F)c3)NC4=O)c21` [Compound 308, 8-[2-(1-methyl-1H-indol-7-yl)-ethanesulfonyl]-2-(3-trifluoromethoxy-phenyl)-1,3,8-triaza-spiro[4.5]dec-1-en-4-one], the “cAMP production activity (%)” value turned out to be 72%.

On to `O=C1NC(C2CCCCC2)=NC12CCN(S(=O)(=O)CCc1cccc3c1ccn3C[C@H](O)CO)CC2` [Compound 309, 2-cyclohexyl-8-{2-[1-((S)-2,3-dihydroxy-propyl)-1H-indol-4-yl]-ethanesulfonyl}-1,3,8-triaza-spiro[4.5]dec-1-en-4-one], for which the “cAMP production activity (%)” value stood at 72%.

Turning to `CN(C)C(=O)n1ccc2c(CCS(=O)(=O)N3CCC4(CC3)N=C(C3CCCCC3)NC4=O)cccc21` [Compound 310, 4-[2-(2-cyclohexyl-4-oxo-1,3,8-triaza-spiro[4.5]dec-1-ene-8-sulfonyl)-ethyl]-indole-1-carboxylic acid dimethylamide], the “cAMP production activity (%)” value came to 76%.

On to `CC1CCC(C2=NC3(CCN(S(=O)(=O)CCCc4cccc5[nH]ccc45)CC3)C(=O)N2)CC1` (stereo not drawn) [Compound 311, 8-[3-(1H-indol-4-yl)-propane-1-sulfonyl]-2-(4-methyl-cyclohexyl)-1,3,8-triaza-spiro[4.5]dec-1-en-4-one], for which the “cAMP production activity (%)” value was found to be 67%.

For the compound `CS(=O)(=O)n1ccc2c(CCS(=O)(=O)N3CCC4(CC3)N=C(C3CCCCC3)NC4=O)cccc21` [Compound 312, 2-cyclohexyl-8-[2-(1-methanesulfonyl-1H-indol-4-yl)-ethanesulfonyl]-1,3,8-triaza-spiro[4.5]dec-1-en-4-one], the “cAMP production activity (%)” value came out at 49%.

For the compound `CN(C)CCn1ccc2c(CCS(=O)(=O)N3CCC4(CC3)N=C(C3CCCCC3)NC4=O)cccc21` [Compound 313, 2-cyclohexyl-8-{2-[1-(2-dimethylamino-ethyl)-1H-indol-4-yl]-ethanesulfonyl}-1,3,8-triaza-spiro[4.5]dec-1-en-4-one], the “cAMP production activity (%)” value is 63%.

Turning to `Nc1ccc(CCS(=O)(=O)N2CCC3(CC2)N=C(C2CCCCC2)NC3=O)c(C(F)(F)F)c1` [Compound 314, 8-[2-(4-amino-2-trifluoromethyl-phenyl)-ethanesulfonyl]-2-cyclohexyl-1,3,8-triaza-spiro[4.5]dec-1-en-4-one], the “cAMP production activity (%)” value turned out to be 68%.

Take `O=C1NC(C2CCCCC2)=NC12CCN(S(=O)(=O)CCCc1cccc(C(F)(F)F)c1)CC2` [Compound 315, 2-cyclohexyl-8-[3-(3-trifluoromethyl-phenyl)-propane-1-sulfonyl]-1,3,8-triaza-spiro[4.5]dec-1-en-4-one]: the “cAMP production activity (%)” value was found to be 26%.

For `Cc1cccc(CCCS(=O)(=O)N2CCC3(CC2)N=C(C2CCCCC2)NC3=O)c1` [Compound 316, 2-cyclohexyl-8-(3-m-tolyl-propane-1-sulfonyl)-1,3,8-triaza-spiro[4.5]dec-1-en-4-one], the “cAMP production activity (%)” value is recorded as 20%.

Regarding `O=C1NC(C2CCCCC2)=NC12CCN(S(=O)(=O)CCCc1cccc(O)c1)CC2` [Compound 317, 2-cyclohexyl-8-[3-(3-hydroxy-phenyl)-propane-1-sulfonyl]-1,3,8-triaza-spiro[4.5]dec-1-en-4-one], the “cAMP production activity (%)” value came to 62%.

Turning to `O=C1NC(C2CCCCC2)=NC12CCN(S(=O)(=O)CCCc1ccccc1O)CC2` [Compound 318, 2-cyclohexyl-8-[3-(2-hydroxy-phenyl)-propane-1-sulfonyl]-1,3,8-triaza-spiro[4.5]dec-1-en-4-one], the “cAMP production activity (%)” value is 52%.

As to `O=C1NC(C2CCCCC2)=NC12CCN(S(=O)(=O)CCc1csc3ccccc13)CC2` [Compound 319, 8-(2-benzo[b]thiophen-3-yl-ethanesulfonyl)-2-cyclohexyl-1,3,8-triaza-spiro[4.5]dec-1-en-4-one], the “cAMP production activity (%)” value came to 31%.

With `O=C1NC(C2CCCCC2)=NC12CCN(S(=O)(=O)CCc1cccc3cnccc13)CC2` [Compound 320, 2-cyclohexyl-8-(2-isoquinolin-5-yl-ethanesulfonyl)-1,3,8-triaza-spiro[4.5]dec-1-en-4-one], the “cAMP production activity (%)” value stood at 33%.

Consider `Cc1cc(NC[C@H](O)CO)ccc1CCS(=O)(=O)N1CCC2(CC1)N=C(C1CCCCC1)NC2=O` [Compound 321, 2-Cyclohexyl-8-{2-[4-((S)-2,3-dihydroxy-propylamino)-2-methyl-phenyl]-ethanesulfonyl}-1,3,8-triaza-spiro[4.5]dec-1-en-4-one], for which the “cAMP production activity (%)” value was determined as 55%.
